# Source: article PMC7714489 (Journal of medicinal chemistry, 2015)
# Key:
# Type in all cases: cell-based
# cellular GAPDH levels = test: Effect on cellular GAPDH levels; settings: 100 μM; data not shown
# [1] = tested on: PC3 cells (a human prostate cancer cell line); test: Toxicity in PC3 cells; settings: 100 μM; data not shown
# thymidine uptake = test: Effect on thymidine uptake; settings: 100 μM; data not shown
# HepG2 cells = test: Lactate production assay; settings: 10 μM, HepG2, 14 days
# [2] = tested on: subgenomic HCV replicon in Huh-7 cells; test: HCV subgenomic replicon assay in Huh-7 cells; settings: Huh-7 replicon
Structure (SMILES),effect on cellular GAPDH levels (cellular GAPDH levels),toxicity in PC3 cells [1],effect on thymidine uptake (thymidine uptake),cell death in lactic acid experiment (HepG2 cells),inhibition of HCV RNA replication (in words) [2]
"CCOC(=O)CCc1ccccc1O[P@@](=O)(N[C@@H](C)C(=O)OCC)OC[C@H]1O[C@@H](n2cnc3c(N)nc(N)nc32)[C@](C)(O)C1O (stereo in doubt) [15b(Rp), Ethyl 3-(2-(((R)-(((2R,3R,4R,5R)-5-(2,6-Diamino-9H-purin-9-yl)-3,4-dihydroxy-4-methyltetrahydrofuran-2-yl)methoxy)(((S)-1-ethoxy-1-oxopropan-2-yl)amino)phosphoryl)oxy)phenyl)-propanoate]",did not observe,did not observe any toxicity,did not observe,,
"COc1nc(N)nc2c1ncn2[C@@H]1O[C@H](COP(=O)(N[C@@H](C)C(=O)OCC(C)(C)C)Oc2cccc3ccccc23)[C@@H](O)[C@@]1(C)O (stereo partly drawn) [compound 1, reference compound]",,,,excessive cell death,nanomolar potency
CCOC(=O)CCc1ccccc1OP(=O)(OC[C@H]1O[C@@H](n2cnc3c(N)nc(N)nc32)[C@](C)(O)[C@@H]1O)Oc1ccccc1CCC(=O)OCC [compound 18],,,,,inactive
